According to patent publication US20240239781A1, “1H-PYRAZOLE DERIVATIVES AS SIGMA LIGANDS” (ACONDICIONAMIENTO TARRASENSE, priority 2021, published 2024):

Tests used:
[1] = target: T1, human σ1 receptor (Homo sapiens, UniProt Q99720); test: Human σ1 receptor radioligand assay ([3H](+)-pentazocine, transfected HEK-293 membranes); conditions: class scale, read-out: Binding σ-1 Ki
T1 construct: expressed in transfected cells; host or cells: HEK-293
In short: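 Membranes (7 μg) from transfected HEK-293 cells were incubated with 5 nM [3H](+)-pentazocine in 50 mM Tris-HCl, pH 8, for 120 minutes at 37° C, with 10 μM haloperidol defining non-specific binding. Bound radioactivity was filtered and counted by scintillation. Results are % inhibition at 1 or 10 μM or Ki from five concentrations.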

[2] = target: T2, human σ2/TMEM97 receptor (Homo sapiens, UniProt Q5BJF2); test: Binding assay to human σ2/TMEM97 receptor ([3H]-DTG, transfected HEK-293 membranes); conditions: class scale, read-out: Binding σ-2 Ki
T2 construct: expressed in transfected cells; host or cells: HEK-293
In short: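 Membranes (15 μg) from transfected HEK-293 incubated 120 min at 25 °C with 10 nM [3H]-DTG in 50 mM Tris-HCl pH 8.0; nonspecific binding with 10 μM haloperidol. Filtration and scintillation counting; % inhibition at 1 or 10 μM, or Ki from five concentrations.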

T1 sequence (Q99720 whole entry): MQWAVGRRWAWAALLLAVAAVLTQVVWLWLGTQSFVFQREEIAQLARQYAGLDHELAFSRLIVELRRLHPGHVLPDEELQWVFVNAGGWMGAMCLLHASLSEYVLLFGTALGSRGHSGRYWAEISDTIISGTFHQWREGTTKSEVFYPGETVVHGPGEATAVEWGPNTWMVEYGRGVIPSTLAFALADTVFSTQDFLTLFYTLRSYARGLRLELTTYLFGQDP
T2 sequence (Q5BJF2 whole entry): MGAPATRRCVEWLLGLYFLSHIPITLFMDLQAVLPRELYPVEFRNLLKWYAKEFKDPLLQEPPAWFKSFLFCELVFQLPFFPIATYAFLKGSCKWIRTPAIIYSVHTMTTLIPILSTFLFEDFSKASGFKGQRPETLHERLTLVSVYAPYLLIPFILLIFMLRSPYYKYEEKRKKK

Row | Compound | Ki [1] | Ki [2]
1 | Cn1cc(-c2nn(C)c(Cl)c2C(=O)NC2CC3(CCN(CCC(C)(C)C)CC3)C2)cn1 [Example 140, 5-Chloro-N-(7-(3,3-dimethylbutyl)-7-azaspiro[3.5]nonan-2-yl)-1,1′-dimethyl-1H,1′H-[3,4′-bipyrazole]-4-carboxamide] | 500 to 1000 nM | < 100 nM
2 | Cc1cc(-c2nn(C)c(Cl)c2C(=O)N2CC3(CCCN(CCC(C)(C)C)C3)C2)no1 [Example 144, (5-Chloro-1-methyl-3-(5-methylisoxazol-3-yl)-1H-pyrazol-4-yl)(6-(3,3-dimethylbutyl)-2,6-diazaspiro[3.5]nonan-2-yl)methanone] | 500 to 1000 nM | 100 to 500 nM
3 | CCn1cc(-c2nn(C)c(Cl)c2C(=O)NC2CC3(CCN(CCC(C)(C)C)CC3)C2)cn1 [Example 145, 5-Chloro-N-(7-(3,3-dimethylbutyl)-7-azaspiro[3.5]nonan-2-yl)-1′-ethyl-1-methyl-1H,1′H-[3,4′-bipyrazole]-4-carboxamide] | 500 to 1000 nM | < 100 nM
4 | CCn1cc(-c2nn(C)c(Cl)c2C(=O)NC2CCC3(CC2)CCN(CCC(C)(C)C)CC3)cn1 [Example 146, 5-Chloro-N-(3-(3,3-dimethylbutyl)-3-azaspiro[5.5]undecan-9-yl)-1′-ethyl-1-methyl-1H,1′H-[3,4′-bipyrazole]-4-carboxamide] | 500 to 1000 nM | < 100 nM
5 | CCn1nc(-c2cnn(C(C)C)c2)c(C(=O)NC2CC3(CCN(CCC(C)(C)C)CC3)C2)c1Cl [Example 149, 5-Chloro-N-(7-(3,3-dimethylbutyl)-7-azaspiro[3.5]nonan-2-yl)-1-ethyl-1′-isopropyl-1H,1′H-[3,4′-bipyrazole]-4-carboxamide] | 100 to 500 nM | < 100 nM
6 | CCn1nc(-c2cc(C)on2)c(C(=O)N2CCCC3(CCN(CCC(C)(C)C)CC3)C2)c1Cl [Example 150, (5-Chloro-1-ethyl-3-(5-methylisoxazol-3-yl)-1H-pyrazol-4-yl)(9-(3,3-dimethylbutyl)-2,9-diazaspiro[5.5]undecan-2-yl)methanone] | 100 to 500 nM | < 100 nM
7 | CCn1nc(-c2cc(C(C)C)on2)c(C(=O)N2CCCC3(CCN(CCC(C)(C)C)CC3)C2)c1Cl [Example 152, (5-Chloro-1-ethyl-3-(5-isopropylisoxazol-3-yl)-1H-pyrazol-4-yl)(9-(3,3-dimethylbutyl)-2,9-diazaspiro[5.5]undecan-2-yl)methanone] | 100 to 500 nM | < 100 nM
8 | Cc1cc(-c2nn(C)c(Cl)c2C(=O)NC2CC3(CCN(Cc4ccccc4)CC3)C2)no1 [Example 153, N-(7-Benzyl-7-azaspiro[3.5]nonan-2-yl)-5-chloro-1-methyl-3-(5-methylisoxazol-3-yl)-1H-pyrazole-4-carboxamide] | 100 to 500 nM | 100 to 500 nM
9 | Cc1cc(-c2nn(C)c(Cl)c2C(=O)NC2CC3(CCN(CC(C)(C)C)CC3)C2)no1 [Example 154, 5-Chloro-1-methyl-3-(5-methylisoxazol-3-yl)-N-(7-neopentyl-7-azaspiro[3.5]nonan-2-yl)-1H-pyrazole-4-carboxamide] | 100 to 500 nM | 100 to 500 nM
10 | Cn1nc(-c2cccc(C(F)(F)F)n2)c(C(=O)N2CCCC3(CCN(CCC(C)(C)C)CC3)C2)c1Cl [Example 155, (5-Chloro-1-methyl-3-(6-(trifluoromethyl)pyridin-2-yl)-1H-pyrazol-4-yl)(9-(3,3-dimethylbutyl)-2,9-diazaspiro[5.5]undecan-2-yl)methanone] | 100 to 500 nM | < 100 nM
11 | Cc1cc(-c2nn(C)c(Cl)c2C(=O)N2CCCC3(CCN(Cc4ccccc4)CC3)C2)no1 [Example 156, (9-Benzyl-2,9-diazaspiro[5.5]undecan-2-yl)(5-chloro-1-methyl-3-(5-methylisoxazol-3-yl)-1H-pyrazol-4-yl)methanone] | 100 to 500 nM | < 100 nM
12 | Cc1cc(-c2nn(C)c(Cl)c2C(=O)N2CCCC3(CCN(CC(C)(C)C)CC3)C2)no1 [Example 157, (5-Chloro-1-methyl-3-(5-methylisoxazol-3-yl)-1H-pyrazol-4-yl)(9-neopentyl-2,9-diazaspiro[5.5]undecan-2-yl)methanone] | > 1000 nM | < 100 nM
13 | CCn1nc(-c2cc(C)on2)c(C(=O)NCCC2CCN(CCC(C)(C)C)CC2)c1Cl [Example 158, 5-Chloro-N-(2-(1-(3,3-dimethylbutyl)piperidin-4-yl)ethyl)-1-ethyl-3-(5-methylisoxazol-3-yl)-1H-pyrazole-4-carboxamide] | 100 to 500 nM | < 100 nM
14 | CCn1nc(-c2ccon2)c(C(=O)NC2CCN(CCC(C)(C)C)CC2)c1Cl [Example 163, 5-Chloro-N-(1-(3,3-dimethylbutyl)piperidin-4-yl)-1-ethyl-3-(isoxazol-3-yl)-1H-pyrazole-4-carboxamide] | 100 to 500 nM | < 100 nM
15 | CCn1nc(-c2cc(C)on2)c(C(=O)N[C@H]2CCN(CCC(C)(C)C)C2)c1Cl [Example 164, (S)-5-Chloro-N-(1-(3,3-dimethylbutyl)pyrrolidin-3-yl)-1-ethyl-3-(5-methylisoxazol-3-yl)-1H-pyrazole-4-carboxamide] | < 100 nM | 100 to 500 nM
16 | CCn1nc(-c2cc(C)on2)c(C(=O)N[C@@H]2CCN(CCC(C)(C)C)C2)c1Cl [Example 165, (R)-5-Chloro-N-(1-(3,3-dimethylbutyl)pyrrolidin-3-yl)-1-ethyl-3-(5-methylisoxazol-3-yl)-1H-pyrazole-4-carboxamide] | < 100 nM | < 100 nM
17 | Cc1cc(-c2nn(C)c(Cl)c2C(=O)NC2CCN(CCC(C)(C)C)CC2)no1 [Example 166, 5-Chloro-N-(1-(3,3-dimethylbutyl)piperidin-4-yl)-1-methyl-3-(5-methylisoxazol-3-yl)-1H-pyrazole-4-carboxamide] | 100 to 500 nM | < 100 nM
18 | Cn1nc(-c2cccc(C(F)(F)F)n2)c(C(=O)NC2CCN(CCC(C)(C)C)CC2)c1Cl [Example 167, 5-Chloro-N-(1-(3,3-dimethylbutyl)piperidin-4-yl)-1-methyl-3-(6-(trifluoromethyl)pyridin-2-yl)-1H-pyrazole-4-carboxamide] | < 100 nM | < 100 nM

Next, values leading:

Row | Ki [1] | Ki [2] | Compound
19 | < 100 nM | < 100 nM | Cc1cccc(-c2nn(C)c(Cl)c2C(=O)NC2CC3(CCN(CCC(C)(C)C)CC3)C2)n1 [Example 141, 5-Chloro-N-(7-(3,3-dimethylbutyl)-7-azaspiro[3.5]nonan-2-yl)-1-methyl-3-(6-methylpyridin-2-yl)-1H-pyrazole-4-carboxamide]
20 | < 100 nM | < 100 nM | CCn1nc(-c2ccon2)c(C(=O)NC2CCC3(CC2)CCN(CCC(C)(C)C)CC3)c1Cl [Example 142, 5-Chloro-N-(3-(3,3-dimethylbutyl)-3-azaspiro[5.5]undecan-9-yl)-1-ethyl-3-(isoxazol-3-yl)-1H-pyrazole-4-carboxamide]
21 | < 100 nM | < 100 nM | CCn1nc(-c2cc(C)on2)c(C(=O)NC2CCC3(CC2)CCN(CCC(C)(C)C)CC3)c1Cl [Example 143, 5-Chloro-N-(3-(3,3-dimethylbutyl)-3-azaspiro[5.5]undecan-9-yl)-1-ethyl-3-(5-methylisoxazol-3-yl)-1H-pyrazole-4-carboxamide]
22 | < 100 nM | < 100 nM | Cn1nc(-c2cccc(C(F)(F)F)n2)c(C(=O)NC2CCC3(CC2)CCN(CCC(C)(C)C)CC3)c1Cl [Example 147, 5-Chloro-N-(3-(3,3-dimethylbutyl)-3-azaspiro[5.5]undecan-9-yl)-1-methyl-3-(6-(trifluoromethyl)pyridin-2-yl)-1H-pyrazole-4-carboxamide]
23 | < 100 nM | < 100 nM | Cc1cccc(-c2nn(C)c(Cl)c2C(=O)NC2CCC3(CC2)CCN(CCC(C)(C)C)CC3)n1 [Example 148, 5-Chloro-N-(3-(3,3-dimethylbutyl)-3-azaspiro[5.5]undecan-9-yl)-1-methyl-3-(6-methylpyridin-2-yl)-1H-pyrazole-4-carboxamide]
24 | < 100 nM | < 100 nM | CCn1nc(-c2cccc(C)n2)c(C(=O)NC2CCC3(CC2)CCN(CCC(C)(C)C)CC3)c1Cl [Example 151, 5-Chloro-N-(3-(3,3-dimethylbutyl)-3-azaspiro[5.5]undecan-9-yl)-1-ethyl-3-(6-methylpyridin-2-yl)-1H-pyrazole-4-carboxamide]
25 | < 100 nM | < 100 nM | CCn1nc(-c2cc(C)on2)c(C(=O)NC2CCN(CCC(C)(C)C)CC2)c1Cl [Example 159, 5-Chloro-N-(1-(3,3-dimethylbutyl)piperidin-4-yl)-1-ethyl-3-(5-methylisoxazol-3-yl)-1H-pyrazole-4-carboxamide]
26 | < 100 nM | < 100 nM | CCn1nc(-c2cc(C)on2)c(C(=O)NC2CCCN(CCC(C)(C)C)CC2)c1Cl (centres unmarked) [Example 160, 5-Chloro-N-(1-(3,3-dimethylbutyl)azepan-4-yl)-1-ethyl-3-(5-methylisoxazol-3-yl)-1H-pyrazole-4-carboxamide]
27 | < 100 nM | < 100 nM | CCn1nc(-c2cccc(C(F)(F)F)n2)c(C(=O)NC2CCN(CCC(C)(C)C)CC2)c1Cl [Example 161, 5-Chloro-N-(1-(3,3-dimethylbutyl)piperidin-4-yl)-1-ethyl-3-(6-(trifluoromethyl)pyridin-2-yl)-1H-pyrazole-4-carboxamide]
28 | < 100 nM | < 100 nM | CCn1nc(-c2cc(C(C)C)on2)c(C(=O)NC2CCN(CCC(C)(C)C)CC2)c1Cl [Example 162, 5-Chloro-N-(1-(3,3-dimethylbutyl)piperidin-4-yl)-1-ethyl-3-(5-isopropylisoxazol-3-yl)-1H-pyrazole-4-carboxamide]
